What was measured:
Alternaria brassicae = assay: In vivo test on Alternaria brassicae (leaf spot of crucifers) on radish plants; conditions: for pest or weed control at 330 ppm: Alternaria brassicae, dose of 330 ppm, radish plants sprayed 24 hours before contamination, grading 6 to 7 days after contamination vs control plants, read-out: good (at least 50%) or total protection; for effectiveness on Alternaria brassicae: comparison compounds of WO 01/11965, 330 ppm
Experimental: In Vivo Test on Alternaria brassicae (Leaf Spot of Crucifers)
(§1) The active ingredient tested is prepared by potter homogenisation in a concentrated suspension type formulation at 100 g/l. This suspension is then diluted with water to obtain the desired active material concentration.
Radish plants (Pernot variety) in starter cups, sown on a 50/50 peat soil-pozzolana substrate and grown at 18-20° C., are treated at the cotyledon stage by spraying with the aqueous suspension described above.
Plants, used as controls, are treated with an aqueous solution not containing the active material.
After 24 hours, the plants are contaminated by spraying them with an aqueous suspension of Alternaria brassicae spores (40,000 spores per cm^3). The spores are collected from a 12 to 13 days-old culture.
The contaminated radish plants are incubated for 6-7 days at about 18° C., under a humid atmosphere.
Grading is carried out 6 to 7 days after the contamination, in comparison with the control plants.

Botrytis cinerea = assay: In vivo test on Botrytis cinerea (cucumber grey mould); conditions: for pest or weed control at 330 ppm: Botrytis cinerea, dose of 330 ppm, cucumber plants sprayed 24 hours before contamination, grading 5/7 days after contamination vs control plants, read-out: good (at least 50%) or total protection; for effectiveness on Botrytis cinerea: comparison compounds of WO 01/11965, 330 ppm
Experimental: In Vivo Test on Botrytis cinerea (Cucumber Grey Mould)
as §1
(§2) Cucumber plants (Marketer variety) in starter cups, sown on a 50/50 peat soil-pozzolana substrate and grown at 18-20° C., are treated at the cotyledon Z11 stage by spraying with the aqueous suspension described above. Plants, used as controls, are treated with an aqueous solution not containing the active material.
After 24 hours, the plants are contaminated by depositing drops of an aqueous suspension of Botrytis cinerea spores (150,000 spores per ml) on upper surface of the leaves. The spores are collected from a 15-day-old culture and are suspended in a nutrient solution composed of:
The contaminated cucumber plants are settled for 5/7 days in a climatic room at 15-11° C. (day/night) and at 80% relative humidity.
Grading is carried out 5/7 days after the contamination, in comparison with the control plants. Under these conditions, good (at least 50%) or total protection is observed at a dose of 330 ppm with the following compounds: 1, 2, 3, 4, 5, 6, 9, 10, 13, 18, 21, 22, 23, 25, 26, 27, 28, 29, 32, 34, 35, 38, 40, 43, 44, 45, 46, 47, 50, 51, 52, 53, 57 and 62.

Pyrenophora teres = assay: In vivo test on Pyrenophora teres (barley net blotch); conditions: 288 h, dose of 330 ppm, barley plants sprayed 24 hours before contamination, grading 12 days after contamination vs control plants, read-out: good (at least 50%) or total protection
Experimental: In Vivo Test on Pyrenophora teres (Barley Net Blotch)
as §1
as §2, with “Barley” for “Cucumber”, “(Express” for “(Marketer”, “12°” for “18-20°”, “1-leaf” for “cotyledon Z11”, “stage (10 cm tall)” for “stage”
After 24 hours, the plants are contaminated by spraying them with an aqueous suspension of Pyrenophora teres spores (12,000 spores per ml). The spores are collected from a 12-day-old culture. The contaminated barley plants are incubated for 24 hours at about 20° C. and at 100% relative humidity, and then for 12 days at 80% relative humidity.

SMILES: O=C(NCCc1ncc(Cl)cc1F)c1ccccc1I [Compound 21]
- pest or weed control at 330 ppm (Alternaria brassicae): ≥ 50%
- pest or weed control at 330 ppm (Botrytis cinerea): ≥ 50%
- pest or weed control at 330 ppm (Pyrenophora teres): ≥ 50%

SMILES: CC(CNC(=O)c1ccccc1I)c1ncc(Cl)cc1Cl (stereo not shown) [Compound 61]
- pest or weed control at 330 ppm (Alternaria brassicae): ≥ 50%
- pest or weed control at 330 ppm (Pyrenophora teres): ≥ 50%

SMILES: O=C(NCCc1nc(Cl)ccc1Cl)c1ccccc1C(F)F [Compound 41]
- pest or weed control at 330 ppm (Alternaria brassicae): ≥ 50%
- pest or weed control at 330 ppm (Pyrenophora teres): ≥ 50%

SMILES: O=C(NCCc1nc(F)c(Cl)cc1Cl)c1ccccc1C(F)(F)F [Compound 57]
- pest or weed control at 330 ppm (Alternaria brassicae): ≥ 50%
- pest or weed control at 330 ppm (Botrytis cinerea): ≥ 50%
- pest or weed control at 330 ppm (Pyrenophora teres): ≥ 50%

SMILES: CC(CNC(=O)c1ccccc1C(F)(F)F)c1ncc(Cl)cc1Cl (stereo not shown) [Compound 60]
- pest or weed control at 330 ppm (Alternaria brassicae): ≥ 50%
- pest or weed control at 330 ppm (Pyrenophora teres): ≥ 50%

SMILES: CCNC(=O)C(Cc1ncc(C(F)(F)F)cc1Cl)NC(=O)c1ccc(Cl)cc1 (stereo not shown) [compound 306, N-{1-ethylcarbamoyl-2-[3-chloro-5-(trifluoromethyl)-2-pyridinyl]ethyl}-4-chlorobenzamide, reference compound]
- effectiveness on Botrytis cinerea (Botrytis cinerea): zero effectiveness

SMILES: O=C(NCCc1ncc(Cl)cc1Cl)c1ccccc1Cl [Compound 2]
- pest or weed control at 330 ppm (Alternaria brassicae): ≥ 50%
- pest or weed control at 330 ppm (Botrytis cinerea): ≥ 50%
- pest or weed control at 330 ppm (Pyrenophora teres): ≥ 50%

SMILES: O=C(NCCc1nc(Cl)ccc1Cl)c1ccccc1I [Compound 36]
- pest or weed control at 330 ppm (Alternaria brassicae): ≥ 50%
- pest or weed control at 330 ppm (Pyrenophora teres): ≥ 50%

SMILES: O=C(NCCc1nc(Cl)ccc1Cl)c1ccccc1C(F)(F)F [Compound 35]
- pest or weed control at 330 ppm (Alternaria brassicae): ≥ 50%
- pest or weed control at 330 ppm (Botrytis cinerea): ≥ 50%
- pest or weed control at 330 ppm (Pyrenophora teres): ≥ 50%

SMILES: CCNC(=O)C(Cc1ncc(C(F)(F)F)cc1Cl)NC(=O)c1ccccc1 (stereo not shown) [compound 304, N-{1-ethylcarbamoyl-2-[3-chloro-5-(trifluoromethyl)-2-pyridinyl]-ethyl}-benzamide, reference compound]
- effectiveness on Botrytis cinerea (Botrytis cinerea): zero effectiveness

SMILES: O=C(NCCc1ncc(Cl)cc1Br)c1ccccc1I [Compound 40]
- pest or weed control at 330 ppm (Alternaria brassicae): ≥ 50%
- pest or weed control at 330 ppm (Botrytis cinerea): ≥ 50%
- pest or weed control at 330 ppm (Pyrenophora teres): ≥ 50%

SMILES: O=C(NCCc1nc(Cl)c(Cl)cc1Cl)c1ccccc1C(F)(F)F [Compound 23]
- pest or weed control at 330 ppm (Botrytis cinerea): ≥ 50%

SMILES: O=C(NCCc1ccc(Cl)cn1)c1ccccc1C(F)(F)F [Compound 20]
- pest or weed control at 330 ppm (Alternaria brassicae): ≥ 50%

SMILES: CNC(=O)C(Cc1ncc(C(F)(F)F)cc1Cl)NC(=O)c1ccccc1 (stereo not shown) [compound 314, N-{1-methylcarbamoyl-2-[3-chloro-5-(trifluoromethyl)-2-pyridinyl]ethyl}-benzamide, reference compound]
- effectiveness on Botrytis cinerea (Botrytis cinerea): zero effectiveness

SMILES: CNC(=O)C(Cc1ncc(C(F)(F)F)cc1Cl)NC(=O)c1ccc(-c2ccccc2)cc1 (stereo not shown) [compound 316, N-{1-methylcarbamoyl-2-[3-chloro-5-(trifluoromethyl)-2-pyridinyl]-ethyl}-4-phenylbenzamide, reference compound]
- effectiveness on Alternaria brassicae (Alternaria brassicae): poor effectiveness
- effectiveness on Botrytis cinerea (Botrytis cinerea): zero effectiveness

SMILES: CC(CNC(=O)c1ccccc1I)c1ccc(Cl)cn1 (stereo not shown) [Compound 65]
- pest or weed control at 330 ppm (Pyrenophora teres): ≥ 50%

SMILES: O=C(NCCc1nc(F)c(Cl)cc1F)c1ccccc1I [Compound 63]
- pest or weed control at 330 ppm (Alternaria brassicae): ≥ 50%
- pest or weed control at 330 ppm (Pyrenophora teres): ≥ 50%

SMILES: O=C(NCCc1nc(Cl)ccc1Cl)c1ccccc1Br [Compound 37]
- pest or weed control at 330 ppm (Alternaria brassicae): ≥ 50%
- pest or weed control at 330 ppm (Pyrenophora teres): ≥ 50%

SMILES: O=C(NCCc1ncc(Cl)cc1F)c1ccccc1C(F)F [Compound 29]
- pest or weed control at 330 ppm (Botrytis cinerea): ≥ 50%

SMILES: O=C(NCCc1nc(Cl)c(Cl)cc1Cl)c1ccccc1I [Compound 22]
- pest or weed control at 330 ppm (Botrytis cinerea): ≥ 50%

SMILES: Cc1c(F)c(F)nc(CCNC(=O)c2ccccc2C(F)(F)F)c1F [Compound 42]
- pest or weed control at 330 ppm (Pyrenophora teres): ≥ 50%

SMILES: O=C(NCCc1nc(F)c(Cl)cc1Cl)c1ccccc1Cl [Compound 59]
- pest or weed control at 330 ppm (Alternaria brassicae): ≥ 50%
- pest or weed control at 330 ppm (Pyrenophora teres): ≥ 50%

SMILES: Cc1ccc(Cl)c(CCNC(=O)c2ccccc2C(F)(F)F)n1 [Compound 56]
- pest or weed control at 330 ppm (Alternaria brassicae): ≥ 50%
- pest or weed control at 330 ppm (Pyrenophora teres): ≥ 50%

SMILES: Cc1ccc(CCNC(=O)c2ccccc2I)nc1 [Compound 14, N-[2-(5-methyl-2-pyridinyl)ethyl]-2-(iodo)benzamide]
- pest or weed control at 330 ppm (Alternaria brassicae): ≥ 50%

SMILES: O=C(NCCc1ncc(Br)cc1Cl)c1ccccc1Br [Compound 52]
- pest or weed control at 330 ppm (Alternaria brassicae): ≥ 50%
- pest or weed control at 330 ppm (Botrytis cinerea): ≥ 50%
- pest or weed control at 330 ppm (Pyrenophora teres): ≥ 50%

SMILES: O=C(NCCc1nc(F)c(F)cc1F)c1ccccc1Br [Compound 47]
- pest or weed control at 330 ppm (Alternaria brassicae): ≥ 50%
- pest or weed control at 330 ppm (Botrytis cinerea): ≥ 50%
- pest or weed control at 330 ppm (Pyrenophora teres): ≥ 50%

SMILES: CC(CNC(=O)c1cc(F)ccc1Cl)c1ccc(Cl)cn1 (stereo not shown) [Compound 7]
- pest or weed control at 330 ppm (Alternaria brassicae): ≥ 50%

SMILES: O=C(NCCc1ccc(Cl)cn1)c1ccccc1Br [Compound 39]
- pest or weed control at 330 ppm (Pyrenophora teres): ≥ 50%

SMILES: CCNC(=O)C(Cc1ncc(C(F)(F)F)cc1Cl)NC(=O)c1cccc([N+](=O)[O-])c1 (stereo not shown) [compound 307, N-{1-ethylcarbamoyl-2-[3-chloro-5-(trifluoromethyl)-2-pyridinyl]ethyl}-3-nitrobenzamide, reference compound]
- effectiveness on Alternaria brassicae (Alternaria brassicae): poor effectiveness
- effectiveness on Botrytis cinerea (Botrytis cinerea): zero effectiveness

SMILES: O=C(NCCc1nc(F)c(F)cc1F)c1ccccc1Cl [Compound 48]
- pest or weed control at 330 ppm (Pyrenophora teres): ≥ 50%

SMILES: O=C(NCCc1nc(F)c(Cl)cc1F)c1ccccc1C(F)(F)F [Compound 62]
- pest or weed control at 330 ppm (Alternaria brassicae): ≥ 50%
- pest or weed control at 330 ppm (Botrytis cinerea): ≥ 50%
- pest or weed control at 330 ppm (Pyrenophora teres): ≥ 50%

SMILES: O=C(NCCc1nc(F)c(Cl)cc1Cl)c1ccccc1Br [Compound 58]
- pest or weed control at 330 ppm (Alternaria brassicae): ≥ 50%
- pest or weed control at 330 ppm (Pyrenophora teres): ≥ 50%

SMILES: Cc1ccccc1C(=O)NCCc1nc(F)c(F)c(C)c1F [Compound 49]
- pest or weed control at 330 ppm (Alternaria brassicae): ≥ 50%
- pest or weed control at 330 ppm (Pyrenophora teres): ≥ 50%

SMILES: O=C(NCCc1nc(F)c(Cl)cc1Cl)c1ccccc1I [Compound 34]
- pest or weed control at 330 ppm (Alternaria brassicae): ≥ 50%
- pest or weed control at 330 ppm (Botrytis cinerea): ≥ 50%
- pest or weed control at 330 ppm (Pyrenophora teres): ≥ 50%

SMILES: O=C(NCCc1ccc(Cl)cn1)c1ccccc1I [Compound 24]
- pest or weed control at 330 ppm (Alternaria brassicae): ≥ 50%

SMILES: CCNC(=O)C(Cc1ncc(C(F)(F)F)cc1Cl)NC(=O)c1ccccc1Br (stereo not shown) [compound 310, N-{1-ethylcarbamoyl-2-[3-chloro-5-(trifluoromethyl)-2-pyridinyl]ethyl}-2-bromobenzamide, reference compound]
- effectiveness on Botrytis cinerea (Botrytis cinerea): zero effectiveness

SMILES: CNC(=O)C(Cc1ncc(C(F)(F)F)cc1Cl)NC(=O)c1ccc(OC)cc1 (stereo not shown) [compound 315, N-{1-methylcarbamoyl-2-[3-chloro-5-(trifluoromethyl)-2-pyridinyl]ethyl}-4-methoxybenzamide, reference compound]
- effectiveness on Botrytis cinerea (Botrytis cinerea): zero effectiveness

Source: patent US7723364B2, “N-[2-(2-pyridinyl) ethyl]benzamide compounds and their use as fungicides” (Bayer Cropscience SA, priority 2003, dated 2010)
